IC50 data for one compound are collected here from ChEMBL document CHEMBL3588776, “Inhibitors of the human neuraminidase enzymes” (Medchemcomm, 2014).

This test deals with T1, Sialidase-3 (Homo sapiens, UniProt Q9UQ49).
T1 sequence (Q9UQ49 whole entry): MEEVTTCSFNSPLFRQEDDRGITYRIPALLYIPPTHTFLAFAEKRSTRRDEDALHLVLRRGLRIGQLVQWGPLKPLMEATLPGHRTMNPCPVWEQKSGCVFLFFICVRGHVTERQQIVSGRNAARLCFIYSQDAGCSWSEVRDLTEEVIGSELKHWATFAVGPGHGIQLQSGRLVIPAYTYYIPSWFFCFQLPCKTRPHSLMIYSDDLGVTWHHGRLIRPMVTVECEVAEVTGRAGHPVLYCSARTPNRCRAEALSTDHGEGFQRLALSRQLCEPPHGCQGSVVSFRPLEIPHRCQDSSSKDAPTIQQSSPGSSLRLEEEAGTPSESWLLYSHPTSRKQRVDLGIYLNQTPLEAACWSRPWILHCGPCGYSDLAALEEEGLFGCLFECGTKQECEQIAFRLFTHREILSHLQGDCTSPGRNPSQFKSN
Nature of the test: Inhibition of human recombinant NEU3 expressed in Escherichia coli pre-incubated for 10 mins before addition of followed by the addition of MUNANA substrate.

One may read the IC50 as the concentration needed to halve the response being measured.

In the case of `C#CCCC(=O)N[C@@H]1[C@@H](O)[C@@H](F)[C@](F)(C(=O)O)O[C@H]1[C@H](O)[C@H](O)CO`, the IC50 was 5 µM.
